Experimental data from PubChem BioAssay AID250 (DTP/NCI, 2004).
“And” between values parts separate entries of the source, which are not always exact repeats. Identical values can stand only once. Inconclusive results and toxic doses are left out.

Test system: BDF1 mice, L1210 leukemia sc, survival T/C
Experiment: NCI In Vivo Anticancer Drug Screen. Data for tumor model L1210 Leukemia (subcutaneous) in B6D2F1 (BDF1) mice
Details: higher = longer survival
Experimental: The antitumor activity of compounds was measured in mice bearing transplantable tumors. Survival or tumor size were measured and the results are expressed as the measurement made in the treated group (T) divided by the measurement made in the vehicle treated control group (C). The tumor model used in this assay is L1210 Leukemia (subcutaneous) in B6D2F1 (BDF1) mice

[1] = endpoint: median survival time, dose: 300.0 mg/kg/injection, schedule: Q01DX Z (sc), vehicle: other
[2] = endpoint: median survival time, dose: 500.0 mg/kg/injection, schedule: Q01DX Z (sc), vehicle: other

## COC1=C(N)C(=O)c2nc(-c3nc(C(=O)O)c(C)c(-c4ccc(OC)c(OC)c4O)c3N)ccc2C1=O
endpoint: median survival time, dose: 0.02 mg/kg/injection, schedule: Q01DX009 (ip), vehicle: water
  T/C: 92 % of control
endpoint: median survival time, dose: 0.02 mg/kg/injection, schedule: Q01DX009 (sc), vehicle: water
  T/C: 93 % of control
endpoint: median survival time, dose: 0.05 mg/kg/injection, schedule: Q01DX009 (ip), vehicle: water
  T/C: 96 % of control
endpoint: median survival time, dose: 0.05 mg/kg/injection, schedule: Q01DX009 (sc), vehicle: water
  T/C: 98 % of control
endpoint: median survival time, dose: 0.1 mg/kg/injection, schedule: Q01DX009 (ip), vehicle: water
  T/C: 96 % of control
endpoint: median survival time, dose: 0.1 mg/kg/injection, schedule: Q01DX009 (sc), vehicle: water
  T/C: 96 % of control
endpoint: median survival time, dose: 0.2 mg/kg/injection, schedule: Q01DX009 (ip), vehicle: water
  T/C: 93 % of control
endpoint: median survival time, dose: 0.2 mg/kg/injection, schedule: Q01DX009 (sc), vehicle: water
  T/C: 94 % of control
endpoint: median survival time, dose: 0.25 mg/kg/injection, schedule: Q01DX009 (sc), vehicle: water
  T/C: 104 % of control
endpoint: median survival time, dose: 0.4 mg/kg/injection, schedule: Q01DX009 (ip), vehicle: water
  T/C: 102 % of control
endpoint: median survival time, dose: 0.4 mg/kg/injection, schedule: Q01DX009 (sc), vehicle: water
  T/C: 98 % of control
endpoint: median survival time, dose: 0.5 mg/kg/injection, schedule: Q01DX009 (sc), vehicle: water
  T/C: 94 % of control and 106 % of control
endpoint: median survival time, dose: 1.0 mg/kg/injection, schedule: Q01DX009 (sc), vehicle: water
  T/C: 96 % of control and 101 % of control
endpoint: median survival time, dose: 2.0 mg/kg/injection, schedule: Q01DX009 (sc), vehicle: water
  T/C: 94 % of control and 96 % of control
endpoint: median survival time, dose: 4.0 mg/kg/injection, schedule: Q01DX009 (sc), vehicle: water
  T/C: 94 % of control

## c1ccc2[nH]cnc2c1
endpoint: median survival time, dose: 14.0 mg/kg/injection, schedule: Q01DX Z (sc), vehicle: other
  T/C: 100 % of control
[1]
  T/C: 100 % of control
[2]
  T/C: 100 % of control

## CCCCCCCCCCCCCCCCNC(=S)N/N=C/c1ccccc1OC
endpoint: median survival time, dose: 78.0 mg/kg/injection, schedule: Q01DX Z (sc), vehicle: water
  T/C: 100 % of control
endpoint: median survival time, dose: 130.0 mg/kg/injection, schedule: Q01DX Z (sc), vehicle: water
  T/C: 105 % of control
endpoint: median survival time, dose: 216.0 mg/kg/injection, schedule: Q01DX Z (sc), vehicle: water
  T/C: 111 % of control
endpoint: median survival time, dose: 360.0 mg/kg/injection, schedule: Q01DX Z (sc), vehicle: water
  T/C: 105 % of control
endpoint: median survival time, dose: 600.0 mg/kg/injection, schedule: Q01DX Z (sc), vehicle: water
  T/C: 100 % of control

## CN1c2c(nc(N)[nH]c2=O)NCC1CCNc1ccc(C(=O)NC(CCC(=O)O)C(=O)O)cc1 (stereo unspecified)
endpoint: median survival time, dose: 6.25 mg/kg/injection, schedule: Q01DX012 (ip), vehicle: other
  T/C: 100 % of control
endpoint: median survival time, dose: 12.5 mg/kg/injection, schedule: Q01DX012 (ip), vehicle: other
  T/C: 111 % of control
endpoint: median survival time, dose: 25.0 mg/kg/injection, schedule: Q01DX012 (ip), vehicle: other
  T/C: 122 % of control
endpoint: median survival time, dose: 50.0 mg/kg/injection, schedule: Q01DX012 (ip), vehicle: other
  T/C: 122 % of control

## CSc1ncnc2c1ncn2C1OC(CO)C(O)C1O (stereo unspecified)
endpoint: median survival time, dose: 5.0 mg/kg/injection, schedule: Q#A X Z (sc), vehicle: water
  T/C: 100 % of control
endpoint: median survival time, dose: 8.4 mg/kg/injection, schedule: Q#A X Z (sc), vehicle: water
  T/C: 100 % of control
endpoint: median survival time, dose: 14.0 mg/kg/injection, schedule: Q01DX Z (sc), vehicle: water
  T/C: 100 % of control
endpoint: median survival time, dose: 14.0 mg/kg/injection, schedule: Q#A X Z (sc), vehicle: water
  T/C: 105 % of control
endpoint: median survival time, dose: 23.0 mg/kg/injection, schedule: Q01DX Z (sc), vehicle: water
  T/C: 100 % of control and 105 % of control
endpoint: median survival time, dose: 23.0 mg/kg/injection, schedule: Q02DX Z (sc), vehicle: water
  T/C: 100 % of control
endpoint: median survival time, dose: 23.0 mg/kg/injection, schedule: Q#A X Z (sc), vehicle: water
  T/C: 111 % of control
endpoint: median survival time, dose: 39.0 mg/kg/injection, schedule: Q01DX Z (sc), vehicle: water
  T/C: 111 % of control
endpoint: median survival time, dose: 39.0 mg/kg/injection, schedule: Q02DX Z (sc), vehicle: water
  T/C: 105 % of control
endpoint: median survival time, dose: 39.0 mg/kg/injection, schedule: Q## X Z (sc), vehicle: water
  T/C: 111 % of control
endpoint: median survival time, dose: 39.0 mg/kg/injection, schedule: Q#A X Z (sc), vehicle: water
  T/C: 111 % of control
endpoint: median survival time, dose: 65.0 mg/kg/injection, schedule: Q01DX001 (sc), vehicle: water
  T/C: 100 % of control
endpoint: median survival time, dose: 65.0 mg/kg/injection, schedule: Q01DX Z (sc), vehicle: water
  T/C: 111 % of control
endpoint: median survival time, dose: 65.0 mg/kg/injection, schedule: Q02DX Z (sc), vehicle: water
  T/C: 100 % of control
endpoint: median survival time, dose: 65.0 mg/kg/injection, schedule: Q## X Z (sc), vehicle: water
  T/C: 105 % of control
endpoint: median survival time, dose: 108.0 mg/kg/injection, schedule: Q01DX001 (sc), vehicle: water
  T/C: 111 % of control
endpoint: median survival time, dose: 108.0 mg/kg/injection, schedule: Q01DX Z (sc), vehicle: water
  T/C: 122 % of control
endpoint: median survival time, dose: 108.0 mg/kg/injection, schedule: Q02DX Z (sc), vehicle: water
  T/C: 111 % of control
endpoint: median survival time, dose: 108.0 mg/kg/injection, schedule: Q## X Z (sc), vehicle: water
  T/C: 111 % of control
endpoint: median survival time, dose: 180.0 mg/kg/injection, schedule: Q01DX001 (sc), vehicle: water
  T/C: 122 % of control
endpoint: median survival time, dose: 180.0 mg/kg/injection, schedule: Q02DX Z (sc), vehicle: water
  T/C: 105 % of control
endpoint: median survival time, dose: 180.0 mg/kg/injection, schedule: Q## X Z (sc), vehicle: water
  T/C: 116 % of control
endpoint: median survival time, dose: 300.0 mg/kg/injection, schedule: Q01DX001 (sc), vehicle: water
  T/C: 122 % of control
endpoint: median survival time, dose: 300.0 mg/kg/injection, schedule: Q## X Z (sc), vehicle: water
  T/C: 122 % of control

## O=c1cnn(C2OC(CO)C(O)C2O)c(=O)[nH]1 (stereo unspecified)
endpoint: median survival time, dose: 37.5 mg/kg/injection, schedule: Q01DX009 (ip), vehicle: water
  T/C: 114 % of control
endpoint: median survival time, dose: 75.0 mg/kg/injection, schedule: Q01DX009 (ip), vehicle: water
  T/C: 118 % of control and 121 % of control
endpoint: median survival time, dose: 75.0 mg/kg/injection, schedule: Q01DX009 (sc), vehicle: water
  T/C: 120 % of control
endpoint: median survival time, dose: 108.0 mg/kg/injection, schedule: Q01DX Z (sc), vehicle: other
  T/C: 120 % of control
endpoint: median survival time, dose: 150.0 mg/kg/injection, schedule: Q01DX009 (ip), vehicle: water
  T/C: 117 % of control and 120 % of control
endpoint: median survival time, dose: 150.0 mg/kg/injection, schedule: Q01DX009 (sc), vehicle: water
  T/C: 121 % of control and 122 % of control
endpoint: median survival time, dose: 180.0 mg/kg/injection, schedule: Q01DX Z (sc), vehicle: other
  T/C: 120 % of control
endpoint: median survival time, dose: 300.0 mg/kg/injection, schedule: Q01DX009 (ip), vehicle: water
  T/C: 117 % of control and 123 % of control
endpoint: median survival time, dose: 300.0 mg/kg/injection, schedule: Q01DX009 (sc), vehicle: water
  T/C: 117 % of control and 122 % of control
[1]
  T/C: 120 % of control
[2]
  T/C: 120 % of control
endpoint: median survival time, dose: 600.0 mg/kg/injection, schedule: Q01DX009 (ip), vehicle: water
  T/C: 118 % of control
endpoint: median survival time, dose: 600.0 mg/kg/injection, schedule: Q01DX009 (sc), vehicle: water
  T/C: 117 % of control
endpoint: median survival time, dose: 833.0 mg/kg/injection, schedule: Q01DX Z (sc), vehicle: other
  T/C: 110 % of control
endpoint: median survival time, dose: 1000.0 mg/kg/injection, schedule: Q01DX Z (sc), vehicle: other
  T/C: 122 % of control
endpoint: median survival time, dose: 1200.0 mg/kg/injection, schedule: Q01DX009 (ip), vehicle: water
  T/C: 104 % of control and 117 % of control
endpoint: median survival time, dose: 1200.0 mg/kg/injection, schedule: Q01DX009 (sc), vehicle: water
  T/C: 114 % of control

## Cc1cccc2c(Nc3ccc(NS(C)(=O)=O)cc3)c3ccc([N+](=O)[O-])cc3nc12
endpoint: mean survival time, dose: 10.0 mg/kg/injection, schedule: Q01DX009 (ip), vehicle: saline
  T/C: 158 % of control

## CC[n+]1c(-c2ccccc2)c2cc(N)ccc2c2ccc(N)cc21
endpoint: median survival time, dose: 39.0 mg/kg/injection, schedule: Q01DX Z (sc), vehicle: carboxymethylcellulose (CMC)
  T/C: 110 % of control
endpoint: median survival time, dose: 65.0 mg/kg/injection, schedule: Q01DX Z (sc), vehicle: carboxymethylcellulose (CMC)
  T/C: 115 % of control
endpoint: median survival time, dose: 108.0 mg/kg/injection, schedule: Q01DX Z (sc), vehicle: carboxymethylcellulose (CMC)
  T/C: 95 % of control

## Clc1ncnc2c1ncn2C1CCCO1 (stereo unspecified)
endpoint: median survival time, dose: 8.4 mg/kg/injection, schedule: Q01DX Z (sc), vehicle: methylcellulose (MC)
  T/C: 100 % of control
endpoint: median survival time, dose: 14.0 mg/kg/injection, schedule: Q01DX Z (sc), vehicle: methylcellulose (MC)
  T/C: 100 % of control
endpoint: median survival time, dose: 23.0 mg/kg/injection, schedule: Q01DX Z (sc), vehicle: methylcellulose (MC)
  T/C: 100 % of control
endpoint: median survival time, dose: 39.0 mg/kg/injection, schedule: Q01DX Z (sc), vehicle: methylcellulose (MC)
  T/C: 100 % of control
endpoint: median survival time, dose: 65.0 mg/kg/injection, schedule: Q01DX Z (sc), vehicle: methylcellulose (MC)
  T/C: 100 % of control
endpoint: median survival time, dose: 108.0 mg/kg/injection, schedule: Q01DX Z (sc), vehicle: methylcellulose (MC)
  T/C: 100 % of control
endpoint: median survival time, dose: 180.0 mg/kg/injection, schedule: Q01DX Z (sc), vehicle: methylcellulose (MC)
  T/C: 100 % of control
endpoint: median survival time, dose: 300.0 mg/kg/injection, schedule: Q01DX Z (sc), vehicle: methylcellulose (MC)
  T/C: 110 % of control
endpoint: median survival time, dose: 500.0 mg/kg/injection, schedule: Q01DX Z (sc), vehicle: methylcellulose (MC)
  T/C: 100 % of control
